According to patent US9642819B2, “Low dosage serotonin 5-HT2A receptor agonist to suppress inflammation” (BOARD OF SUPERVISORS OF LOUISIANA STATE UNIVERSITY AND …, priority 2008, dated 2017):
pIC50, pKi: −log10 of the molar value.

Assays:
VCAM-1 gene expression [1] = assay: TNF-α induced VCAM-1 gene expression in primary rat aortic smooth muscle cells; assay type: cell-based; conditions: RASM passage 4, media with FBS, 24 h pretreatment, TNF-α 10 ng/ml, read-out: IC50 for proinflammatory gene expression inhibition for VCAM-1
Description: RASM cells and treatment. Rat aortic smooth muscle (RASM) cells were isolated from adult 180 g male Sprague-Dawley rats and provided by the Cell and Molecular Core Facility in the Department of Pharmacology at LSUHSC-NO. Isolated RASM cells were grown in M-199 media containing 10% fetal bovine serum (Gibco), 100 units/mL penicillin, and 100 µg/mL streptomycin, and incubated at 37° C. in 5% CO2. Cells for all assays were used between passages 3 and 5. Prior to treatments, cells were grown in M-199 media with 10% fetal bovine serum (FBS) until 30-50% confluent. […]
RNA isolation and Quantitative Realtime-PCR. […]
The sequences of primers used are: 5-HT2AR (5-hydroxytryptamine 2A receptor): forward primer 5′-[…]-3′ (SEQ ID NO: 1), reverse primer, 5′[…]-3′ (SEQ ID NO: 2); ICAM-1 (intracellular adhesion molecule 1): forward primer, 5′-[…]-3′ (SEQ ID NO: 3, reverse primer, 5′-[…]-3′ (SEQ ID NO: 4); VCAM-1 (vascular adhesion molecule 1): forward primer, 5′-[…]-3′ (SEQ ID NO: 5), reverse primer, 5′-[…]-3′ (SEQ ID NO: 6); IL-6 (interleukin-6): forward primer, 5′-[…] […]-3′ (SEQ ID NO: 7), reverse primer, 5′-[…]-3′ (SEQ ID NO: 8); and cyclophillin B (control amplicon): forward primer, 5′-[…]-3′ (SEQ ID NO: 9), reverse primer, 5′-[…]-3′ (SEQ ID NO: 10). […] Quantitative determination of gene expression levels using a 2-step cycling protocol was performed on a MyIQ-5 Cycler (Bio-Rad, Hercules Calif.). […]

ICAM-1 gene expression = assay: TNF-α induced ICAM-1 gene expression in human neuroblastoma cells (SHSY5Y); assay type: cell-based
Description: (§1) Experiments were conducted to analyze for the effect of 5-HT2A receptor activation on proinflammatory marker expression in other cell types. Human neuroblastoma cells (SHSY5Y) and rat glioma cells (C6) can be obtained from the American Type Culture Collection (Manassas, Va.), but were provided Purdue University. The cells were grown in DMEM+10% FBS. DMEM was made and provided by the Cell and Molecular Core of the Mentoring in Cardiovascular Biology COBRE center at LSUHSC-NO. FBS was purchased from Invitrogen (Carlsbad, Calif.). Primary rat aortic endothelial cells were prepared fresh and provided by the Cell and Molecular Core of the Mentoring in Cardiovascular Biology COBRE center at LSUHSC-NO. Cells were tested at passages 3-4. Cells were grown in endothelial cell growth medium (Cell Applications, Inc.). Primary rat bronchoaveolar macrophage cells were obtained by lung lavage from rats and used at day 3 or 4 post plating in DMEM+10% FBS.
(§2) All treatments with 5-HT2A receptor agonists occurred 1 hour prior to the addition of TNF-alpha (10 ng/ml) or LPS (100 ng or 1 mg) depending on the experiment. All RNA isolations, cDNA synthesis, QPCR gene expression assays examining ICAM1, VCAM1, and IL6, and data analysis were performed as described above in Example 1, except the primers were different for the human cell experiment. […]

VCAM-1 gene expression [2] = assay: TNF-α induced VCAM-1 gene expression in primary rat bronchoaveolar macrophage cells; assay type: cell-based
Description: as §1, §2

5-HT2A receptor = conditions: read-out: Affinity=Ki for the receptor; cited from earlier work

Compound: COc1cc(C[C@@H](C)N)c(OC)cc1I [(R)-DOI, (R)-1-(2,5-dimethoxy-4-iodophenyl)-2-aminopropane]
- pIC50 (VCAM-1 gene expression [1]): 10.92
- effect on ICAM-1 gene expression in human neuroblastoma cells (ICAM-1 gene expression): blocked
- pIC50 (ICAM-1 gene expression; Homo sapiens, Neuroblastoma cell, 1 hour prior to TNF-α 10 ng/ml, read-out: IC50 for ICAM-1 gene expression inhibition in human neuroblastoma cells): ~9.10
- effect on VCAM-1 gene expression in rat bronchoaveolar macrophage cells (VCAM-1 gene expression [2]): potently blocked
- pIC50 (VCAM-1 gene expression [2]; Rattus norvegicus, Macrophage, 1 hour prior to TNF-α 10 ng/ml, read-out: IC50 for VCAM-1 gene expression inhibition in rat bronchoaveolar macrophage cells): ~10.70
- pKi (5-HT2A receptor): 9.30
